In general, MIC refers to the lowest concentration that inhibits growth of the organism. As usually defined, the ED50 is the midpoint of the dose-response relation.

Converted amounts (≈) assume the structure as drawn. The source made the active and inactive calls. No cut-off for these calls is given here.

For data set [1], the system named is Staphylococcus aureus. The data set can be described thus: Antibacterial activity against vancomycin-intermediate resistant Staphylococcus aureus Mu 50 assessed as reduction in microbial growth incubated for 24 hrs by broth microdilution method. The format is functional.
Data set [2] concerns Enterococcus faecalis. Put plainly: Antibacterial activity against vancomycin-resistant Enterococcus faecalis VREfa 20-1 assessed as reduction in microbial growth incubated for 24 hrs by broth microdilution method. Type of data set: functional. (In broth dilution the organism is exposed to a series of concentrations in liquid medium.)
For data set [3], the system named is Enterococcus faecium. The data set can be described thus: Antibacterial activity against glycopeptide-resistant Enterococcus faecium Efm-HS-0649 assessed as reduction in microbial growth incubated for 24 hrs by broth microdilution method. Type of data set: functional.
Data set [4] has as its system Staphylococcus aureus. Put plainly: Antibacterial activity against vancomycin-intermediate resistant Staphylococcus aureus ATCC 700699 assessed as reduction in microbial growth incubated for 24 hrs by broth microdilution method. The format is functional.
In data set [5] the test system is Enterococcus faecalis. Put plainly: Antibacterial activity against Enterococcus faecalis EFA 20-1 assessed as reduction in microbial growth incubated for 24 hrs by broth microdilution method. The format is functional.
In data set [6] the test system is Enterococcus faecium. The data set can be described thus: Potency index, ratio of daptomycin MIC to test compound MIC for antibacterial activity against glycopeptide-resistant Enterococcus faecium Efm-HS-0649. Type of data set: functional.
In data set [7] the test system is Staphylococcus aureus. The data set can be described thus: Potency index, ratio of daptomycin MIC to test compound MIC for antibacterial activity against methicillin-susceptible Staphylococcus aureus Newman ATCC 25904. Type of data set: functional.
For data set [8], the system named is Staphylococcus aureus. The data set can be described thus: Antibacterial activity against methicillin-susceptible Staphylococcus aureus Newman ATCC 25904 assessed as reduction in microbial growth incubated for 24 hrs by broth microdilution method. Type of data set: functional.
Data set [9] concerns Staphylococcus aureus. Put plainly: Antibacterial activity against methicillin-resistant Staphylococcus aureus USA300 assessed as reduction in microbial growth incubated for 24 hrs by broth microdilution method. The format is functional.
Data set [10] relates to Staphylococcus aureus. The data set can be described thus: Antibacterial activity against methicillin-resistant Staphylococcus aureus clinical isolate 20-3 infected in iv dosed Kunming mouse model assessed as increase in survival measured after 14 days. Type of data set: functional. The following applies: Clinical isolate 20-3, 336 h, time 14 day.
The subject of data set [11] is Staphylococcus aureus. Put plainly: Ratio of MIC for antibacterial activity against Staphylococcus aureus in presence of MHB medium to MIC for antibacterial activity against Staphylococcus aureus CAMHB medium. Type of data set: functional.
Data set [12] relates to Staphylococcus aureus. Put plainly: Antibacterial activity against methicillin-resistant Staphylococcus aureus clinical isolate 20-2 assessed as reduction in microbial growth incubated for 24 hrs by broth microdilution method. Type of data set: functional.
The test system of data set [13] is Staphylococcus aureus. The data set can be described thus: Antibacterial activity against Staphylococcus aureus assessed as reduction in bacterial growth incubated for 16 to 24 hrs by serial dilution method. Type of data set: functional. The following applies: time 16-24 hrs.
The test system of data set [14] is Staphylococcus aureus. The data set can be described thus: Antibacterial activity against Staphylococcus aureus assessed as reduction in bacterial growth incubated for 16 to 24 hrs in presence of MHB medium by serial dilution method. Type of data set: functional. The following applies: time 16-24 hrs.
Data set [15] in a line: Observed volume of distribution at steady state in CD-1 mouse at 1 mg/kg, iv measured up to 24 hrs by UPLC-MS analysis. Type of data set: ADME, organism-based. Conditions: in vivo, read-out: Vdss.
Data set [16] has as its system Enterococcus faecium. Put plainly: Antibacterial activity against Enterococcus faecium EFM 20-1 assessed as reduction in microbial growth incubated for 24 hrs by broth microdilution method. Type of data set: functional.
In data set [17] the test system is Enterococcus faecalis. The data set can be described thus: Antibacterial activity against Enterococcus faecalis ATCC 29212 assessed as reduction in microbial growth incubated for 24 hrs by broth microdilution method. Type of data set: functional.
Data set [18] relates to Staphylococcus aureus. Put plainly: Induction of membrane disruption in Staphylococcus aureus at 4 to 16 ug/ml incubated for 4 hrs by propidium iodide staining based flow cytometric analysis. The format is functional, organism-based. Conditions: dose 4-16 µg/ml. In general terms: Flow cytometry measures light scatter and fluorescence of single cells or particles in a stream.

Data set [19] deals with Staphylococcus aureus. Put plainly: Induction of drug resistance against Staphylococcus aureus Newman ATCC 25904 assessed as fold increase in MIC after 15 days by broth microdilution method. Conditions: time 15.0 day. The format is functional.
Data set [20] relates to Staphylococcus aureus. Put plainly: Antibacterial activity against methicillin-susceptible Staphylococcus aureus ATCC 29213 assessed as reduction in microbial growth incubated for 24 hrs by broth microdilution method. The format is functional.
Another data set relates to Erythrocyte. The data set can be described thus: Hemolytic activity in rat RBC at 400 ug/ml incubated for 1 hr. The following applies: dose 400 µg/ml. The format is toxicity, cell-based.
The test system of data set [21] is Staphylococcus aureus. Put plainly: Ratio of MIC for antibacterial activity against Staphylococcus aureus in presence of PG to MIC for antibacterial activity against Staphylococcus aureus. The format is functional.
Data set [22] relates to Staphylococcus aureus. The data set can be described thus: Antibacterial activity against Staphylococcus aureus assessed as reduction in bacterial growth incubated for 16 to 24 hrs in presence of CAMHB medium by serial dilution method. Type of data set: functional. The following applies: time 16-24 hrs.
In data set [23] the test system is Staphylococcus aureus. Put plainly: Antibacterial activity against methicillin-resistant Staphylococcus aureus clinical isolate 20-1 assessed as reduction in microbial growth incubated for 24 hrs by broth microdilution method. The format is functional.
The test system of data set [24] is Staphylococcus aureus. Put plainly: Antibacterial activity against methicillin-susceptible Staphylococcus aureus clinical isolate 20-1 assessed as reduction in microbial growth incubated for 24 hrs by broth microdilution method. Type of data set: functional.
For data set [25], the system named is Staphylococcus aureus. Put plainly: Antibacterial activity against Staphylococcus aureus assessed as reduction in bacterial growth incubated for 16 to 24 hrs in presence of PG by serial dilution method. Type of data set: functional. The following applies: time 16-24 hrs.
Data set [26] concerns Staphylococcus aureus. The data set can be described thus: Antibacterial activity against methicillin-resistant Staphylococcus aureus clinical isolate 20-3 assessed as reduction in microbial growth incubated for 24 hrs by broth microdilution method. Type of data set: functional.

`CN[C@H](CC(C)C)C(=O)N[C@H]1C(=O)N[C@@H](CC(N)=O)C(=O)N[C@H]2C(=O)N[C@H]3C(=O)N[C@H](C(=O)N[C@H](C(=O)O)c4cc(O)cc(O)c4-c4cc3ccc4O)[C@H](O)c3ccc(c(Cl)c3)Oc3cc2cc(c3O[C@@H]2O[C@H](CO)[C@@H](O)[C@H](O)[C@H]2O[C@H]2C[C@](C)(N)[C@H](O)[C@H](C)O2)Oc2ccc(cc2Cl)[C@H]1O` [VANCOMYCIN]: the MIC in the data set on Staphylococcus aureus [1] is 8 µg/mL; with Enterococcus faecalis [2] it was more than 16 µg/mL; in the data set with Enterococcus faecium [3], more than 128 µg/mL; in the data set on Staphylococcus aureus [4], 8 µg/mL; in the data set with Enterococcus faecalis [5] it was 1 µg/mL.
In the case of `CCCCCCCCCC(=O)N[C@@H](Cc1c[nH]c2ccccc12)C(=O)N[C@H](CC(N)=O)C(=O)N[C@@H](CC(=O)O)C(=O)N[C@@H]1C(=O)NCC(=O)N[C@@H](CCCN)C(=O)N[C@@H](CC(=O)O)C(=O)N[C@H](C)C(=O)N[C@@H](CC(=O)O)C(=O)NCC(=O)N[C@H](CO)C(=O)N[C@@H]([C@H](C)CC(=O)O)C(=O)N[C@@H](CC(=O)c2ccccc2NCCC)C(=O)O[C@@H]1C`, the Ratio in the data set on Enterococcus faecium [6] and with Staphylococcus aureus [7] was 2 in each case. In addition, the MIC with Staphylococcus aureus [1] stood at 4 µg/mL; with Enterococcus faecium [3], 1 µg/mL; in the data set on Staphylococcus aureus [8], 1 µg/mL; with Staphylococcus aureus [9], 0.5 µg/mL.
With `CCCCCCCCCC(=O)N[C@@H](Cc1c[nH]c2ccccc12)C(=O)N[C@H](CC(N)=O)C(=O)N[C@@H](CC(=O)O)C(=O)N[C@@H]1C(=O)NCC(=O)N[C@@H](CCCN)C(=O)N[C@@H](CC(=O)O)C(=O)N[C@H](C)C(=O)N[C@@H](CC(=O)O)C(=O)NCC(=O)N[C@H](CO)C(=O)N[C@@H]([C@H](C)CC(=O)O)C(=O)N[C@@H](CC(=O)c2ccccc2N)C(=O)O[C@@H]1C`, the 50% effective dose (ED50) in the data set on Staphylococcus aureus [10] amounted to 0.2 mg/kg. The Ratio with Staphylococcus aureus [11] amounted to 16; in the data set with Staphylococcus aureus [21], 32. Moreover, the minimal inhibitory concentration (MIC) in the data set on Staphylococcus aureus [12] amounted to 1 µg/mL; in the data set on Staphylococcus aureus [13], 4 µg/mL (≈ 2.47 µM); with Staphylococcus aureus [14] it was 64 µg/mL; in the data set on Staphylococcus aureus [1], 8 µg/mL; with Enterococcus faecalis [2], 8 µg/mL; in the data set with Enterococcus faecium [3], 8 µg/mL. In addition, the MIC is 8 µg/mL with Enterococcus faecium [16]; 2 µg/mL in the data set with Staphylococcus aureus [8]; 4 µg/mL with Enterococcus faecalis [17]; 8 µg/mL in the data set on Staphylococcus aureus [4]; 4 µg/mL with Enterococcus faecalis [5]; 1 µg/mL in the data set with Staphylococcus aureus [20]. For the same molecule, the minimum inhibitory concentration (MIC) is 2 µg/mL with Staphylococcus aureus [9]; 4 µg/mL in the data set with Staphylococcus aureus [22]; 1 µg/mL with Staphylococcus aureus [23]; 1 µg/mL in the data set on Staphylococcus aureus [24]; 128 µg/mL with Staphylococcus aureus [25]; 1 µg/mL in the data set with Staphylococcus aureus [26]. In addition, in data set [15], the Vd stood at 0.115 L/kg. Further, the outcome with Staphylococcus aureus [18] was Active. Moreover, the fold change (FC) with Staphylococcus aureus [19] was determined as 4. Further, the Activity result in the data set with Erythrocyte is listed as “Non-Toxic”.
Regarding `CCCCCCCCCC(=O)N[C@@H](Cc1c[nH]c2ccccc12)C(=O)N[C@H](CC(N)=O)C(=O)N[C@@H](CC(=O)O)C(=O)N[C@@H]1C(=O)NCC(=O)N[C@@H](CCCN)C(=O)N[C@@H](CC(=O)O)C(=O)N[C@H](C)C(=O)N[C@@H](CC(=O)O)C(=O)NCC(=O)N[C@H](CO)C(=O)N[C@@H]([C@H](C)CC(=O)O)C(=O)N[C@@H](CC(=O)c2ccccc2NCc2ccccc2)C(=O)O[C@@H]1C`, the Ratio with Enterococcus faecium [6] and in the data set with Staphylococcus aureus [7] was 4 throughout. The minimal inhibitory concentration (MIC) with Staphylococcus aureus [1] is 4 µg/mL; in the data set on Enterococcus faecium [3], 1 µg/mL; with Staphylococcus aureus [8] it was 0.5 µg/mL; in the data set with Staphylococcus aureus [9], 0.5 µg/mL.
Consider `CCCCCCCCCC(=O)N[C@@H](Cc1c[nH]c2ccccc12)C(=O)N[C@H](CC(N)=O)C(=O)N[C@@H](CC(=O)O)C(=O)N[C@@H]1C(=O)NCC(=O)N[C@@H](CCCN)C(=O)N[C@@H](CC(=O)O)C(=O)N[C@H](C)C(=O)N[C@@H](CC(=O)O)C(=O)NCC(=O)N[C@H](CO)C(=O)N[C@@H]([C@H](C)CC(=O)O)C(=O)N[C@@H](CC(=O)c2ccccc2NCc2ccccn2)C(=O)O[C@@H]1C`, for which the Ratio with Enterococcus faecium [6] and in the data set on Staphylococcus aureus [7] was 8 in each case. The MIC in the data set on Staphylococcus aureus [1] came to 32 µg/mL; in the data set on Enterococcus faecium [3], 8 µg/mL; in the data set on Staphylococcus aureus [8] it was 8 µg/mL; in the data set on Staphylococcus aureus [9], 4 µg/mL.
Consider `CCCCCCCCCC(=O)N[C@@H](Cc1c[nH]c2ccccc12)C(=O)N[C@H](CC(N)=O)C(=O)N[C@@H](CC(=O)O)C(=O)N[C@@H]1C(=O)NCC(=O)N[C@@H](CCCN)C(=O)N[C@@H](CC(=O)O)C(=O)N[C@H](C)C(=O)N[C@@H](CC(=O)O)C(=O)NCC(=O)N[C@H](CO)C(=O)N[C@@H]([C@H](C)CC(=O)O)C(=O)N[C@@H](CC(=O)c2ccccc2NCCCCCCC)C(=O)O[C@@H]1C` (single isomer, unassigned), for which the Ratio with Enterococcus faecium [6] and in the data set with Staphylococcus aureus [7] was 2 in each case. The MIC with Staphylococcus aureus [1] was found to be 2 µg/mL; in the data set on Enterococcus faecium [3] it was 0.25 µg/mL; in the data set with Staphylococcus aureus [8] it was 0.5 µg/mL; with Staphylococcus aureus [9] it was 0.25 µg/mL.

(Values after ChEMBL document CHEMBL5625187, “A facile and selective derivatization approach on kynurenine-NH2 in daptomycin, leading to the discovery of hexakynomycin to combat multidrug-resistant Gram-positive pathogens especially daptomycin-resistant bacteria” (Eur J Med Chem, 2023).)
